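Tested at 5 concentrations; 48 h exposure; 96-well plates; endpoints linearly interpolated, else capped at highest concentration. The concentration for 50% growth inhibition is given as GI50.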 The source made the active and inactive calls. No stated cut-off is given here; in the data, active = GI50 up to about 1.1 µM and inactive = higher.
Legend:
Assay in all cases: NCI tumour cell line growth inhibition, 48 h
MDA-N = tested on: MDA-N
HOP-62 = tested on: HOP-62
SW-620 = tested on: SW-620
SK-OV-3 = tested on: SK-OV-3
NCI-H522 = tested on: NCI-H522
M14 = tested on: M14
DU-145 = tested on: DU-145
MOLT-4 = tested on: MOLT-4
TK-10 = tested on: TK-10
BT-549 = tested on: BT-549
NCI-H226 = tested on: NCI-H226
786-0 = tested on: 786-0
Hs-578T = tested on: Hs-578T
SK-MEL-5 = tested on: SK-MEL-5
CAKI-1 = tested on: CAKI-1
COLO 205 = tested on: COLO 205
T47D = tested on: T47D
UO-31 = tested on: UO-31
PC-3 = tested on: PC-3
NCI/ADR-RES = tested on: NCI/ADR-RES
OVCAR-8 = tested on: OVCAR-8
SK-MEL-28 = tested on: SK-MEL-28
SN12C = tested on: SN12C
KM12 = tested on: KM12
Malme-3M = tested on: Malme-3M
MDA-MB-231 = tested on: MDA-MB-231
HCT-15 = tested on: HCT-15
OVCAR-3 = tested on: OVCAR-3
HCT-116 = tested on: HCT-116
RXF 393 = tested on: RXF 393
CCRF-CEM = tested on: CCRF-CEM
UACC-257 = tested on: UACC-257
MDA-MB-435 = tested on: MDA-MB-435
MCF7 = tested on: MCF7
UACC-62 = tested on: UACC-62
SF-268 = tested on: SF-268
A498 = tested on: A498
SK-MEL-2 = tested on: SK-MEL-2
SNB-75 = tested on: SNB-75
SR = tested on: SR
HT-29 = tested on: HT-29
SNB-19 = tested on: SNB-19
A549 = tested on: A549
U-251 = tested on: U-251
SF-295 = tested on: SF-295
K562 = tested on: K562
NCI-H460 = tested on: NCI-H460
IGROV-1 = tested on: IGROV-1
LOX IMVI = tested on: LOX IMVI
OVCAR-4 = tested on: OVCAR-4
EKVX = tested on: EKVX
OVCAR-5 = tested on: OVCAR-5
RPMI-8226 = tested on: RPMI-8226
ACHN = tested on: ACHN
HCC 2998 = tested on: HCC 2998
SF-539 = tested on: SF-539
NCI-H23 = tested on: NCI-H23
HOP-92 = tested on: HOP-92

## Cc1ccc(C)n1-n1c(Cc2ccc(Cl)cc2)n[nH]c1=O
MDA-N
  GI50: > 100 µM (inactive)
HOP-62
  GI50: > 100 µM (inactive)
SW-620
  GI50: > 100 µM (inactive)
SK-OV-3
  GI50: > 100 µM (inactive)
NCI-H522
  GI50: 20.9 µM (inactive)
M14
  GI50: > 100 µM (inactive)
DU-145
  GI50: > 100 µM (inactive)
MOLT-4
  GI50: 29 µM (inactive)
TK-10
  GI50: > 100 µM (inactive)
BT-549
  GI50: 71.1 µM (inactive)
NCI-H226
  GI50: 84.7 µM (inactive)
786-0
  GI50: > 100 µM (inactive)
Hs-578T
  GI50: > 100 µM (inactive)
SK-MEL-5
  GI50: 51.8 µM (inactive)
CAKI-1
  GI50: 90.6 µM (inactive)
COLO 205
  GI50: 83.6 µM (inactive)
T47D
  GI50: 39.9 µM (inactive)
UO-31
  GI50: 58.7 µM (inactive)
PC-3
  GI50: 39.2 µM (inactive)
NCI/ADR-RES
  GI50: 40.8 µM (inactive)
OVCAR-8
  GI50: 77.4 µM (inactive)
SK-MEL-28
  GI50: > 100 µM (inactive)
SN12C
  GI50: > 100 µM (inactive)
KM12
  GI50: 46 µM (inactive)
Malme-3M
  GI50: 92.5 µM (inactive)
MDA-MB-231
  GI50: > 100 µM (inactive)
HCT-15
  GI50: > 100 µM
OVCAR-3
  GI50: 54.5 µM (inactive)
HCT-116
  GI50: 53.3 µM (inactive)
RXF 393
  GI50: 59.3 µM (inactive)
CCRF-CEM
  GI50: 36.6 µM (inactive)
UACC-257
  GI50: 74.8 µM (inactive)
MDA-MB-435
  GI50: > 100 µM (inactive)
MCF7
  GI50: 90.4 µM (inactive)
UACC-62
  GI50: > 100 µM (inactive)
SF-268
  GI50: > 100 µM (inactive)
A498
  GI50: > 100 µM (inactive)
SK-MEL-2
  GI50: 31 µM (inactive)
SNB-75
  GI50: > 100 µM (inactive)
SR
  GI50: 33.2 µM (inactive)
HT-29
  GI50: 73.8 µM (inactive)
SNB-19
  GI50: > 100 µM (inactive)
A549
  GI50: 69 µM (inactive)
U-251
  GI50: 77.6 µM (inactive)
SF-295
  GI50: 66.2 µM (inactive)
K562
  GI50: 41.1 µM (inactive)
NCI-H460
  GI50: > 100 µM (inactive)
IGROV-1
  GI50: > 100 µM (inactive)
LOX IMVI
  GI50: 59.4 µM (inactive)
OVCAR-4
  GI50: > 100 µM (inactive)
EKVX
  GI50: 69.5 µM (inactive)
OVCAR-5
  GI50: > 100 µM (inactive)
RPMI-8226
  GI50: 33.3 µM (inactive)
ACHN
  GI50: > 100 µM (inactive)

## CC1OC2=N[C@@H]1C(=O)N[C@@H](Cc1ccccc1)C1=N[C@H](C(=O)N[C@@H](Cc3ccccc3)C3=N[C@H](C(=O)N[C@H]2Cc2ccccc2)C(C)O3)C(C)O1 (stereo partly drawn)
MDA-N
  GI50: 43.2 µM (inactive)
HOP-62
  GI50: 48.3 µM (inactive)
SW-620
  GI50: 37.2 µM (inactive)
SK-OV-3
  GI50: 49.7 µM (inactive)
M14
  GI50: 22.6 µM (inactive)
DU-145
  GI50: 57.9 µM (inactive)
TK-10
  GI50: 26.5 µM (inactive)
BT-549
  GI50: 40 µM (inactive)
NCI-H226
  GI50: 29.6 µM (inactive)
Hs-578T
  GI50: 24.3 µM (inactive)
SK-MEL-5
  GI50: 24.3 µM (inactive)
CAKI-1
  GI50: 40.4 µM (inactive)
COLO 205
  GI50: 18.6 µM (inactive)
T47D
  GI50: 31.1 µM (inactive)
UO-31
  GI50: 31.8 µM (inactive)
PC-3
  GI50: 22.4 µM (inactive)
HCC 2998
  GI50: 34.5 µM (inactive)
NCI/ADR-RES
  GI50: 44.6 µM (inactive)
OVCAR-8
  GI50: 26.4 µM (inactive)
SF-539
  GI50: 24.2 µM (inactive)
SK-MEL-28
  GI50: 26.5 µM (inactive)
SN12C
  GI50: 36 µM (inactive)
KM12
  GI50: 61.1 µM (inactive)
Malme-3M
  GI50: 22.4 µM (inactive)
MDA-MB-231
  GI50: 33 µM (inactive)
HCT-15
  GI50: 30.6 µM
OVCAR-3
  GI50: 28.2 µM (inactive)
HCT-116
  GI50: 23.3 µM (inactive)
RXF 393
  GI50: 31.1 µM (inactive)
NCI-H23
  GI50: 37.2 µM (inactive)
UACC-257
  GI50: 30.4 µM (inactive)
MDA-MB-435
  GI50: 28 µM (inactive)
MCF7
  GI50: 45.9 µM (inactive)
UACC-62
  GI50: 30.8 µM (inactive)
HOP-92
  GI50: 18.9 µM (inactive)
A498
  GI50: 29.9 µM (inactive)
SK-MEL-2
  GI50: 25.1 µM (inactive)
SR
  GI50: 27.9 µM (inactive)
HT-29
  GI50: 20 µM (inactive)
A549
  GI50: 25.5 µM (inactive)
SF-295
  GI50: 30.7 µM (inactive)
K562
  GI50: 26.7 µM (inactive)
IGROV-1
  GI50: 29.4 µM (inactive)
LOX IMVI
  GI50: 17 µM (inactive)
OVCAR-4
  GI50: 46.2 µM (inactive)
EKVX
  GI50: 49.5 µM (inactive)
OVCAR-5
  GI50: 30.3 µM (inactive)
RPMI-8226
  GI50: 13.5 µM (inactive)
ACHN
  GI50: 31.3 µM (inactive)
